Test results published in ChEMBL document CHEMBL1201862, “PubChem BioAssay data set” (2004).
Active and inactive are the calls of the source.

Legend:
[1] = molecular target: T1, Sentrin-specific protease 8 (Homo sapiens, UniProt Q96LD8); assay type: functional
T1 sequence (Q96LD8 whole entry): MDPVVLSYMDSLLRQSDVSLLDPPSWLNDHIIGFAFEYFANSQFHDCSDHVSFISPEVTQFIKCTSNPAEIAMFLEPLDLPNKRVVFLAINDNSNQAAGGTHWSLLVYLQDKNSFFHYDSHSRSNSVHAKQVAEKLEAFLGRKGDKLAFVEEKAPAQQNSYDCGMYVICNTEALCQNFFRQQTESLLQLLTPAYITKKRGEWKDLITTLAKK

[2] = molecular target: T1, Sentrin-specific protease 8; assay type: functional; remark: listed apart in the source
[3] = molecular target: T2, Rac GTPase-activating protein 1 (Homo sapiens, UniProt Q9H0H5); test: blockers of MgcRacGAP-driven Rac1 GTP hydrolysis – biochemical, ADP Hunter fluorescence, primary and confirmatory, confirmation (AID 624330); assay type: functional
T2 sequence (Q9H0H5 whole entry): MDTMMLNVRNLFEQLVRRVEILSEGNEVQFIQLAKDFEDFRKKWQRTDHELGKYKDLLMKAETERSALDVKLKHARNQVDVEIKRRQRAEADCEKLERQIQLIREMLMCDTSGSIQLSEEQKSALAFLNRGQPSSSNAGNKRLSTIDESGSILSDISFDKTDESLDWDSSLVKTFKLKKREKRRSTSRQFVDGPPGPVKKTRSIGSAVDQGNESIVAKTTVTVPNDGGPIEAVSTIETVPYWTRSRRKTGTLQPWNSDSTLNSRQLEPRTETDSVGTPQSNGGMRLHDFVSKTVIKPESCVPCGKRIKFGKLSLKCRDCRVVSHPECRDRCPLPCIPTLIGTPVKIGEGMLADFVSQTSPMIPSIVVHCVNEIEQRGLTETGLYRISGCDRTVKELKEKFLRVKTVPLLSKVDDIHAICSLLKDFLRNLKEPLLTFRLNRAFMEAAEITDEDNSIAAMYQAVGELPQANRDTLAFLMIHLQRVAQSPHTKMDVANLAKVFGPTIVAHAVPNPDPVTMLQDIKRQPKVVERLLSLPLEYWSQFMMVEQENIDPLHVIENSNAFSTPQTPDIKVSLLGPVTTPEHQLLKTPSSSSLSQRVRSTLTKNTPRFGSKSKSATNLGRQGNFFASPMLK

[4] = blockers of HIV-1 ZM109 envelope-driven cell-cell fusion – HeLa effector, CEM target cells, luciferase, cherry-pick, dose response (AID 652058); assay type: functional, cell-based;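 further: luciferase signal from HIV-1 Env mediated cell-cell fusion of effector and target cells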
[5] = off-target signal loss in HeLa-CEM21 co-culture – HeLa F-luc CTL cells, cherry-picked, counter-screen for HIV-1 Env fusion inhibitor project, dose response (AID 652040); assay type: functional, cell-based;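 further: potency for signal decrease marking cytotoxic or nonspecific inhibition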
[6] = HIV-1 AD8 envelope cell-cell fusion blockers – cherry-pick, dose response (AID 652062); assay type: functional, cell-based;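 further: luciferase signal from cell-cell fusion driven by HIV-1 clade B AD8 Env; potency is for inhibitors of fusion seen as a drop in luminescence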
[7] = blockers of HIV-1 envelope-mediated cell-cell fusion – cherry-pick, dose response (AID 652057); assay type: functional, cell-based
[8] = blockers of CRF-binding protein–CRF-R2 complex – cell-based, uHTS hits, 384-well, dose response (AID 651639); assay type: functional, Homo sapiens; conditions: read-out: IC50_Mean
[9] = molecular target: T3, Corticotropin-releasing factor receptor 2/Corticotropin-releasing factor-binding protein (Homo sapiens, UniProt P24387+Q13324); test: Dose Response confirmation of uHTS hits for small molecule antagonists of the CRF-binding protein and CRF-R2 receptor complex.; assay type: functional; conditions: read-out: IC50_Mean
T3 sequence (Q13324 whole entry): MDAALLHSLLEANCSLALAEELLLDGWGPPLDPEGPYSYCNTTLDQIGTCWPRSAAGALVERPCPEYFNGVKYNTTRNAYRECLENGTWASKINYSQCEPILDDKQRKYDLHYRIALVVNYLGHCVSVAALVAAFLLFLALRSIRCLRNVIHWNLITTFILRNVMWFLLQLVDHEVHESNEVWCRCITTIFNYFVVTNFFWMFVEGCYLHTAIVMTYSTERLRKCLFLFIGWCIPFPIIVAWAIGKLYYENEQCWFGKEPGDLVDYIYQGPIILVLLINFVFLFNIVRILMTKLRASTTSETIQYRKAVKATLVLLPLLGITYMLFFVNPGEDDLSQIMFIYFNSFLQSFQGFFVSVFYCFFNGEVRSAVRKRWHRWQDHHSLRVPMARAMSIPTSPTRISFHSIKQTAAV
T3 sequence (P24387 whole entry): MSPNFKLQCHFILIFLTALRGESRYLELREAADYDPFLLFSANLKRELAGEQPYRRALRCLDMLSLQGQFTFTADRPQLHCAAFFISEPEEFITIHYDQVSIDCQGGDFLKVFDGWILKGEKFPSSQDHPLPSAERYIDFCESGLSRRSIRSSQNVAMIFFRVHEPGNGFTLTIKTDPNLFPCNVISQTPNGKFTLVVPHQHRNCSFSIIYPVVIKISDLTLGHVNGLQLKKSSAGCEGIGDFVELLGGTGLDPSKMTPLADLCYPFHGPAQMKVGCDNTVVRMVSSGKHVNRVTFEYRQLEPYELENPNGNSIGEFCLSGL

Fatty acid synthase [10] = molecular target: T4, Fatty acid synthase (Homo sapiens, UniProt P49327); test: inhibition of human FAS-TE enzyme activity – biochemical, kinetic fluorescence intensity, dose response (AID 624326); assay type: functional;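 further: rate of fluorescence rise from hydrolysis of a fluorogenic O-methyl fluorescein ester substrate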
T4 sequence (P49327 whole entry): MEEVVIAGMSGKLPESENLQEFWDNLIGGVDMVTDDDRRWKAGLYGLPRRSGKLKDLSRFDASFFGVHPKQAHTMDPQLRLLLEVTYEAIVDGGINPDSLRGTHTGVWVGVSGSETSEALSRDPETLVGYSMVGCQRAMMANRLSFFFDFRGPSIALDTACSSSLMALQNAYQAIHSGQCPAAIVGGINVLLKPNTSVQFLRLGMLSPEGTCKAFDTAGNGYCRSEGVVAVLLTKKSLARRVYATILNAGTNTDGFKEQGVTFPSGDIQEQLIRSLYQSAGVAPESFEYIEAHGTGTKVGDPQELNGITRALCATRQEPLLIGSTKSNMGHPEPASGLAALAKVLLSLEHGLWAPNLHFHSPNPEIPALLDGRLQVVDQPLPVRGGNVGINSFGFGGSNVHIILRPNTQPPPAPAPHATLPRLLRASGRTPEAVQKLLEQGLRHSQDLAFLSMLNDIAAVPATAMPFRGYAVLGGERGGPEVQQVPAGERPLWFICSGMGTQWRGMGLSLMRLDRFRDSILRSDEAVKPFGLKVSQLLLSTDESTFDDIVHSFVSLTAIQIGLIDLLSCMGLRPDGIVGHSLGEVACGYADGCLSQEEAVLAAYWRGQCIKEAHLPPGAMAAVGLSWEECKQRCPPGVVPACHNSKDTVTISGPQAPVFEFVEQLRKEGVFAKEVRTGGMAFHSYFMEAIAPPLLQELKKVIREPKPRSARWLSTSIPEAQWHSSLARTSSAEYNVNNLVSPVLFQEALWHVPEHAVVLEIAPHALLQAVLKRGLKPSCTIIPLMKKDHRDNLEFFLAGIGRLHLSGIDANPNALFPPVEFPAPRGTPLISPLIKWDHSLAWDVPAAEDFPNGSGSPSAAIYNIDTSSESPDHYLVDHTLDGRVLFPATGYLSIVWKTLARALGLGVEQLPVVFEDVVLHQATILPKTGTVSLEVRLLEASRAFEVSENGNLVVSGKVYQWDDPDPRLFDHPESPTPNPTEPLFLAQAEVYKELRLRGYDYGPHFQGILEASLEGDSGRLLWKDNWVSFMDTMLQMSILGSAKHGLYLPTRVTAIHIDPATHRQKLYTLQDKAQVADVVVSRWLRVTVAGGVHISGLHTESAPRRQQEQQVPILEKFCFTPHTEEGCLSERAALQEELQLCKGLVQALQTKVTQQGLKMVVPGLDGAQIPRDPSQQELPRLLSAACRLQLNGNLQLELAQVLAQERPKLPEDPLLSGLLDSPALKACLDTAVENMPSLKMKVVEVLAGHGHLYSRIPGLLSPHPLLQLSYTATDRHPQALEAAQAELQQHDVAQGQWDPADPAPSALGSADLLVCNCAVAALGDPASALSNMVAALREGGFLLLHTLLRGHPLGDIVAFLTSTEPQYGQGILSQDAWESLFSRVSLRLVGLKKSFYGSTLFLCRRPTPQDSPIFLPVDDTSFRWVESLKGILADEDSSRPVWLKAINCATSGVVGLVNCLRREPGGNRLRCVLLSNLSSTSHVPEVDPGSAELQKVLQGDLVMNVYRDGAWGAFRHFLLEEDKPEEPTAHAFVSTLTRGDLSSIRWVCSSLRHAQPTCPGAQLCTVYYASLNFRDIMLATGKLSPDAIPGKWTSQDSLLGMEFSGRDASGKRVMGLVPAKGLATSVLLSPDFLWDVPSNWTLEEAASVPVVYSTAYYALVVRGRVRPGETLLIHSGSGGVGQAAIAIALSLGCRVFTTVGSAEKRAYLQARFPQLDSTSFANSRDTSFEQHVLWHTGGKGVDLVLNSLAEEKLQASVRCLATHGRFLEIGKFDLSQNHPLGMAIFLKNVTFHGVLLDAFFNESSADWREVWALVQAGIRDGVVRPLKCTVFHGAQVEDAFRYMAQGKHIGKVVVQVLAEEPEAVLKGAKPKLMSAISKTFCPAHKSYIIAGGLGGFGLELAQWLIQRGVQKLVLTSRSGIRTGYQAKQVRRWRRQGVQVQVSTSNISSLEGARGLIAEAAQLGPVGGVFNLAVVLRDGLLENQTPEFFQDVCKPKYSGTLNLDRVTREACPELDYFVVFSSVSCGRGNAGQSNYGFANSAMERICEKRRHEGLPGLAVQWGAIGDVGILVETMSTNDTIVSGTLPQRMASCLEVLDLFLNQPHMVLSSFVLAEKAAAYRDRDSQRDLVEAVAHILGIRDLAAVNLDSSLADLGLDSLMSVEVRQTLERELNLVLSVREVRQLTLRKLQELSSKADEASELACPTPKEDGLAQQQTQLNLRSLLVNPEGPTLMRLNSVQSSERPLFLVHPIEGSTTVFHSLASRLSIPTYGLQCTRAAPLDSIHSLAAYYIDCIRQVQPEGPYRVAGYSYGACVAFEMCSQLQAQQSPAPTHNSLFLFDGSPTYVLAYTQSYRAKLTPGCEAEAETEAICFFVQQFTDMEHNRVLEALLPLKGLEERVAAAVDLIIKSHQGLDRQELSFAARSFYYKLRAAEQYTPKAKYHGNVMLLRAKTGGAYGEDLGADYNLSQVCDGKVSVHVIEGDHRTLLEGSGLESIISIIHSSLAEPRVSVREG

[11] = molecular target: T3, Corticotropin-releasing factor receptor 2/Corticotropin-releasing factor-binding protein; test: activators of CRF receptor 2 with binding protein – uHTS hits, confirmation (AID 602473); assay type: functional; conditions: read-out: EC50_Mean
Fatty acid synthase [12] = molecular target: T4, Fatty acid synthase; test: inhibition of human FAS-TE enzyme activity – biochemical, endpoint fluorescence intensity, uHTS hits, dose response (AID 624327); assay type: functional;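 further: fluorescence from hydrolysis of an O-methyl fluorescein acyl ester substrate by the enzyme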
[13] = general mammalian cell viability loss – inhibitor set, cherry-pick, set 2, cytotoxicity control for miR-122 modulator project, dose response (AID 720697); assay type: functional, cell-based
[14] = activation of miR-122 Renilla sensor silencing – cell-based, Huh7 psiCHECK-miR122, Renilla luciferase, cherry-picked, dose response (AID 651956); assay type: functional;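 further: huh7 hepatoma cells stably carrying a psiCHECK-2 miR-122 sensor plasmid; renilla luciferase signal reporting endogenous miR-122 activity after 48 h compound exposure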
[15] = molecular target: T5, Probable nicotinate-nucleotide adenylyltransferase (Staphylococcus aureus (strain N315), UniProt P65502); assay type: functional, Staphylococcus aureus subsp. aureus N315; conditions: read-out: IC50_Mean;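 on IC50 Mean: confirmatory dose-response retesting of NadD inhibitor hits first found in an ultra-high-throughput screen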
T5 sequence (P65502 whole entry): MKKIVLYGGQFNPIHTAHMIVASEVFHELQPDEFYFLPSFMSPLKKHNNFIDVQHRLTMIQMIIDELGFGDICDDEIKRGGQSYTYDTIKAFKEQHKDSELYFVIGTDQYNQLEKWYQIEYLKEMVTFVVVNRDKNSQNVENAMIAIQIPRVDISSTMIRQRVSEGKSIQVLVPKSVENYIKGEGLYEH

[16] = molecular target: T6, Replicative DNA helicase DnaB (Mycobacterium tuberculosis, UniProt P9WMR3); test: DnaB intein splicing inhibitors, dose response, biochemical, cell-free fluorescence (AID 449749); assay type: functional
T6 sequence (P9WMR3 whole entry): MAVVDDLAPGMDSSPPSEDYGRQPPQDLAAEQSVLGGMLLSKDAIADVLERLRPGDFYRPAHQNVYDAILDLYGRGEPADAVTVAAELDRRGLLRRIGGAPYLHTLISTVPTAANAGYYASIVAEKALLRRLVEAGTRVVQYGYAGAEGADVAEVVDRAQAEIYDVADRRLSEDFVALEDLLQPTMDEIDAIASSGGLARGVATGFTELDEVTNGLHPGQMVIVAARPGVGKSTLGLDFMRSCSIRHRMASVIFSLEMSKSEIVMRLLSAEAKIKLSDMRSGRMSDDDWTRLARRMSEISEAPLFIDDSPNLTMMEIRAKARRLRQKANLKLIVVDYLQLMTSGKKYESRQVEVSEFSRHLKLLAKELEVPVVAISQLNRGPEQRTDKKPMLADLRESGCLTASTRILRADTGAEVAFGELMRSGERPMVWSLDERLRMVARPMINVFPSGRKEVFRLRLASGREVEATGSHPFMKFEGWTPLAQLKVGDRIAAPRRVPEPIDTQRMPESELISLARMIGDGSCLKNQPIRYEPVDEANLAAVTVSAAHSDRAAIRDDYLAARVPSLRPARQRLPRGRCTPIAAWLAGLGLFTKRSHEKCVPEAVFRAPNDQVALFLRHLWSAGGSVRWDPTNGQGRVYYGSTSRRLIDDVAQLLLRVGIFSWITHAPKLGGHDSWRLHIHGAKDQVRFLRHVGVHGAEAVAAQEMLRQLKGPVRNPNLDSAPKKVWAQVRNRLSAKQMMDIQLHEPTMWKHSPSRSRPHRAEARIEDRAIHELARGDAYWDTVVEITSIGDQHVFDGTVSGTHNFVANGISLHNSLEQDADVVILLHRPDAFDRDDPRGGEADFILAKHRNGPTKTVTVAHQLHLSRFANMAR

[17] = molecular target: T5, Probable nicotinate-nucleotide adenylyltransferase; assay type: functional, Staphylococcus aureus subsp. aureus N315
Protein RecA = molecular target: T7, Protein RecA (Mycobacterium tuberculosis, UniProt P9WHJ3); test: Fluorescence Cell-Free Homogeneous Dose Retest to Identify Inhibitors of RecA-Intein Splicing Activity. [Related pubchem assays (depositor defined):AID2097, AID2223, AID489010, AID492950]; assay type: functional
T7 sequence (P9WHJ3 whole entry): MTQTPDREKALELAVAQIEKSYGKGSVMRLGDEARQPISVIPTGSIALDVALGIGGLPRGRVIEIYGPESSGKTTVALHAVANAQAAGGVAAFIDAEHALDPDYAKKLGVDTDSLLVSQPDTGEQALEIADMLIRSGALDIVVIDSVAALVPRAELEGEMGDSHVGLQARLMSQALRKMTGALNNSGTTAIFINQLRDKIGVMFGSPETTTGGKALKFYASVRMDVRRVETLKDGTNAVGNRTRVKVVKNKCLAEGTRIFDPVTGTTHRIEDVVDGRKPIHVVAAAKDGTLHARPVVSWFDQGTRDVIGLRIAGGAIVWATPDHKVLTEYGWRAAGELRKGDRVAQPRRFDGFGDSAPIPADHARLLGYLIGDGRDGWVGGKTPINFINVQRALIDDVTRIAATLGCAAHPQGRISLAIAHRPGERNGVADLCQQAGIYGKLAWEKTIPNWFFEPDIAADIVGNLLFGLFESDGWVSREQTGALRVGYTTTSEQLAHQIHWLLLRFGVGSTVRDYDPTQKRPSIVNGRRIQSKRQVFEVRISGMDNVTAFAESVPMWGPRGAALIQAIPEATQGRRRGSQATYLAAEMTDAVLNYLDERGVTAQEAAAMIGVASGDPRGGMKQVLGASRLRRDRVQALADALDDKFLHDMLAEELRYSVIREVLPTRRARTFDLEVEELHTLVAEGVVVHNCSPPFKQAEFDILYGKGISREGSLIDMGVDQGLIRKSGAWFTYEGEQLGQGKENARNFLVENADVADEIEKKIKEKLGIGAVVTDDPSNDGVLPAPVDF

Structure (SMILES): COc1ccc(NCc2ccc([N+](=O)[O-])s2)c(OC)c1
- IC50 [1]: 11.6 µM (active)
- IC50 [2]: 13.5 µM (active)
- IC50 [3]: 34.4 µM (active)

Structure (SMILES): O=C(c1ccc(S(=O)(=O)Nc2ccc(F)cc2)cc1)N1CCN(C(=O)c2ccco2)CC1
- AC50 [4]: 10.4 µM (active)
- AC50 [5]: 24.4 µM (active)
- AC50 [6]: 2.86 µM (active)

Structure (SMILES): C=CCN(Cc1ccc(OC)c(OC)c1)C(=O)c1cc2cc(F)ccc2[nH]1
- AC50 [7]: 6.22 µM (active)
- AC50 [4]: 9.08 µM (active)
- AC50 [5]: 11.8 µM (active)
- AC50 [6]: 10.5 µM (active)

Structure (SMILES): COc1ccc([N+](=O)[O-])cc1N(CC(O)Cn1nnc2ccccc21)S(=O)(=O)c1ccc(C)cc1 (centres undefined)
- IC50 [8]: 8.96 µM (active)
- IC50 [9]: 4.39 µM (active)
- IC50 (Fatty acid synthase [10]): 8.07 µM (active)
- EC50 [11]: > 53 µM (inactive)
- IC50 (Fatty acid synthase [12]): 10.8 µM (active)

Structure (SMILES): CCCN(CC(=O)Nc1ccccc1OC)C(=O)c1cccc(S(=O)(=O)NCc2ccccc2)c1
- AC50 [7]: 4.37 µM (active)
- AC50 [4]: 10.3 µM (active)
- AC50 [5]: 5.73 µM (active)
- AC50 [6]: 39.2 µM (active)

Structure (SMILES): O=C1SCCN1N=Cc1ccc([N+](=O)[O-])o1
- IC50 [1]: 61 µM (inactive)
- IC50 [2]: > 100 µM (inactive)

Structure (SMILES): COCC(=O)N(C)C[C@H]1Oc2cc(-c3ccccc3F)ccc2S(=O)(=O)N([C@@H](C)CO)C[C@H]1C
- AC50 [13]: 8.35 µM (active)
- AC50 [14]: 3.15 µM (active)

Structure (SMILES): CC1=NN(c2ccc(C)c(C)c2)C(=O)C1C(c1cccc(O)c1)C1C(=O)N(c2ccc(C)c(C)c2)N=C1C (centres undefined)
- IC50 [15]: 15.1 µM (active)
- AC50 [16]: 1.14 µM (active)
- IC50 [17]: 6.63 µM (active)
- IC50 [1]: 14.7 µM (active)
- EC50 (Protein RecA): 0.468 µM (active)
- IC50 [2]: 7.94 µM (active)

Structure (SMILES): COc1ccccc1C#Cc1ccc2c(c1)O[C@H](CN(C)Cc1cccnc1)[C@@H](C)CN([C@@H](C)CO)S2(=O)=O
- AC50 [13]: 0.944 µM (active)
- AC50 [14]: 25.6 µM (active)

Structure (SMILES): Cc1ccc(-n2nnnc2SCc2nnc(-c3ccccc3Br)o2)c(C)c1
- IC50 [8]: 10.7 µM (active)
- IC50 [9]: 2.72 µM (active)
- EC50 [11]: > 53 µM (inactive)
